Data from US20250009707A1, “METHODS OF INDUCING KETOSIS IN NON-HUMAN MAMMALS” (BOPZ Nutrition Ltd., priority 2023, published 2025).

What was measured:
[1] = Tolerability (emesis) in fasted canines, sublingual gavage (Example 1); assay type: in vivo; conditions: 250 mg/kg
Experimental: Example 1 provides a method by which compounds of the disclosure were evaluated in a first study, wherein dogs were fasted and the compounds were administered by sublingual gavage.
In a first period, a group of 12 canines (beagles) were administered 5.5% MCT in a first period, and 250 mg/kg C8-BHB in a second period. A 7 day washout period was provided between the first and second periods.
The canines were fasted, and the C8-BHB or MCTs was administered by sublingual gavage.
(§1) In each of the first, second, third, and fourth period, pathology samples were taken prior to administration of the compound, then at minute 20, 60, 90, 120, 180, 240, and 300.
Where emesis occurred before 60 minutes from dosing, serum BHB content was not analyzed.
Where emesis occurred at or after 60 minutes from dosing and before 300 minutes from dosing, Cmax was calculated but AUC was not calculated.

[2] = Tolerability in fed canines, gastric gavage (Example 2); assay type: in vivo
Experimental: (§2) A group of 6 beagles was evaluated per tested compound of the disclosure. In a first period, the canines were administered 250 mg/kg of C8-BHB. In a second period, the canines were administered 500 mg/kg of C8-BHB. In a third period, the canines were administered MCT at a dose of 5.5%. In a fourth period, the canines were administered 125 mg/kg of C8-BHB. A washout period of 7 days was provided between each of the first, second, third, and fourth periods.
(§3) Following the tolerability results of Example 1, the canines were fed, and the compound was administered by gastric gavage in subsequent examples.
as §1
(§4) If emesis occurred 60 minutes from administration of the compound, serum BHB content was not analyzed.

[3] = Serum/plasma BHB in fed canines, gastric gavage (Examples 2-4); assay type: in vivo, canines (beagles); conditions: 500 mg/kg
Experimental: Ketosis may be assessed quantitatively by measuring plasma beta-hydroxybutyrate (BHB) concentrations. Methods of measuring plasma BHB concentrations are known in the art. Non-limiting exemplary methods for measuring plasma BHB concentrations are provided in U.S. Pat. No. 10,562,839, which is hereby incorporated by reference in its entirety. Plasma BHB levels may be determined by a colorimetric enzymatic assay (Stanbio Laboratory 2440-058).
as §2, §3
In each of the first, second, third, and fourth period, serum was sampled prior to administration of the compound, then at minute 15, 30, 45, 60, 75, 90, 120, 180, 240, and 300. Serum was sampled for BHB analysis.
as §4
C8-BHB and C8×2-BD were selected as exemplary compounds of the disclosure for administration to canines according to the method of Example 2. Each exemplary compound was administered to 6 canines.
To further evaluate the potential of the compounds of the disclosure for inducing ketosis in canines, the compounds and MCTs were administered to the same canines, as described in Example 2.

SMILES	Tolerability compared to MCTs (FIG. 1B) [1]	Tolerability compared to MCTs (FIGS. 2A-D) ([2]; fed canines, gastric gavage, doses of 125, 250 and 500 mg/kg)	Canines tolerating the substance ([2]; fed state, overall)	BHB Cmax [3]	BHB Tmax [3]
CCCCCCCC(=O)O[C@H](C)CC(=O)OCC [C8-BHB, octanoyl-ethyl-3-hydroxybutyrate]	better tolerated	improved tolerability	83%	1.00 mM	51 min
CCCCCCCC(=O)OCC[C@@H](C)OC(=O)CCCCCCC [C8×2-BD, bis-octanoyl-1,3-butanediol]	–	–	–	0.70 mM	57 min
